We go through 22 molecules from patent US20240270741A1 (Cogent Biosciences, Inc., priority 2023, published 2024).

What is called IC50 is the concentration that gives 50% inhibition.

Sequence of FGFR2 (P21802 399-821 limits assumed): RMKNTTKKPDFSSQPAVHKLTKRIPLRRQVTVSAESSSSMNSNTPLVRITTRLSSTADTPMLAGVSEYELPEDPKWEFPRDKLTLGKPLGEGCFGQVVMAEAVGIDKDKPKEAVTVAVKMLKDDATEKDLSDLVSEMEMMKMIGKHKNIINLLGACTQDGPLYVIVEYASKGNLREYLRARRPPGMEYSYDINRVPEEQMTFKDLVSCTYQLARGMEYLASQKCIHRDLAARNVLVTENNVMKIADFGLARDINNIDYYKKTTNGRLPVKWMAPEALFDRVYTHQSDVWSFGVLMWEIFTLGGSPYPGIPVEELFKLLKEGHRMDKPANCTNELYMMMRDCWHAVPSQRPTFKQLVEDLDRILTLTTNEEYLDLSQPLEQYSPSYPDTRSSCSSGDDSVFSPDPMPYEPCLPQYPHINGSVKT

One assay addresses FGFR2 (Homo sapiens, UniProt P21802). Nature of the assay: FGFR wild type enzyme assay (HTRF KinEASE-TK), FGFR2. As to conditions: Enz FGFR2 (nM). (Time-resolved FRET reads energy transfer from a long-lived donor to a nearby acceptor.)
`N#Cc1cnn2cc(-c3cnn([C@H]4CCCNC4)c3)cc(Sc3cccnn3)c12` [Example 82, 6-[1-[(3S)-3-piperidyl]pyrazol-4-yl]-4-pyridazin-3-ylsulfanyl-pyrazolo[1,5-a]pyridine-3-carbonitrile] showed an IC50 of 32 nM. This counts as double-digit nanomolar. As to `N#Cc1cnn2cc(-c3cnn([C@H]4CCCNC4)c3)cc(Sc3cncnc3)c12` [Example 83, 6-[1-[(3S)-3-piperidyl]pyrazol-4-yl]-4-pyrimidin-5-ylsulfanyl-pyrazolo[1,5-a] pyridine-3-carbonitrile], the IC50 is 19 nM.

Consider `Cc1c(-c2cc(Sc3ccccc3C#N)c3c(C#N)cnn3c2)cnn1[C@H]1CCCNC1` [Example 105, 4-(2-cyanophenyl)sulfanyl-6-[5-methyl-1-[(3S)-3-piperidyl]pyrazol-4-yl]pyrazolo[1,5-a]pyridine-3-carbonitrile], for which the IC50 worked out at 1 nM. Compared with the last molecule, the IC50 is about 19-fold lower. Molecule `Cc1nc(Sc2cc(-c3cnn(C4CCNCC4)c3C)cn3ncc(C#N)c23)ccc1F` [Example 114, 4-[(5-fluoro-6-methyl-2-pyridyl)sulfanyl]-6-[5-methyl-1-(4-piperidyl)pyrazol-4-yl]pyrazolo[1,5-a]pyridine-3-carbonitrile] came in with an IC50 of 3 nM. This IC50 lies about 3-fold higher than the previous one.

Staying with this assay, now noted: Enz FGFR2 (nM), FGFR2 wild type enzyme.
`Cc1c(-c2cc(Sc3ccccc3C#N)c3c(C#N)cnn3c2)cnn1C[C@H]1CCCNC1` [Example 201, (S)-4-((2-cyanophenyl)thio)-6-(5-methyl-1-(piperidin-3-ylmethyl)-1H-pyrazol-4-yl)pyrazolo[1,5-a]pyridine-3-carbonitrile] returned an IC50 of 2 nM.

`Cc1nn(C2CCN(C)CC2)c(C)c1-c1cc(Sc2ncccc2F)c2c(C#N)cnn2c1` [Example 303, 6-(3,5-dimethyl-1-(1-methylpiperidin-4-yl)-1H-pyrazol-4-yl)-4-((3-fluoropyridin-2-yl)thio)pyrazolo[1,5-a]pyridine-3-carbontirile] registered an IC50 of 6 nM. `Cc1c(-c2cc(Sc3ccccc3C#N)c3c(C#N)cnn3c2)cnn1[C@H]1CC[C@](C)(O)CC1` [Example 261, 4-((2-cyanophenyl)thio)-6-(1-((1r,4r)-4-hydroxy-4-methylcyclohexyl)-5-methyl-1H-pyrazol-4-yl)pyrazolo[1,5-a]pyridine-3-carbonitrile] displayed an IC50 of 0.5 nM. With `CC(=O)N1CCC(Cn2ncc(-c3cc(Sc4ccccc4C#N)c4c(C#N)cnn4c3)c2C)CC1` [Example 221, 6-(1-((1-acetylpiperidin-4-yl)methyl)-5-methyl-1H-pyrazol-4-yl)-4-((2-cyanophenyl)thio)pyrazolo [1,5-a]pyridin-3-carbonitrile], the IC50 was determined as 1 nM. The molecule `Cc1c(-c2cc(Sc3ccccc3C#N)c3c(C#N)cnn3c2)cnn1[C@H]1CC[C@@H](NC(C)C)CC1` [Example 251] registered an IC50 of 0.5 nM.

For the molecule `CC(=O)N[C@H]1CC[C@@H](n2cc(-c3cc(Sc4ccccc4C#N)c4c(C#N)cnn4c3)cn2)CC1` [Example 316, N-((1s,4s)-4-(4-(3-cyano-4-((2-cyanophenyl)thio)pyrazolo [1,5-a]pyridin-6-yl)-1H-pyrazol-1-yl)cyclohexyl)acetamide], the IC50 is 0.4 nM. This IC50 and that of the molecule before are within 1.5-fold of each other. Regarding `CN[C@]1(C)CC[C@@H](n2ncc(-c3cc(Sc4ccccc4C#N)c4c(C#N)cnn4c3)c2C)CC1` [Example 320, 4-((2-cyanophenyl)thio)-6-(5-methyl-1-((1r,4r)-4-methyl-4-(methylamino)cyclohexyl)-1H-pyrazol-4-yl)pyrazolo[1,5-a]pyridine-3-carbonitirle], the IC50 worked out at 0.3 nM. Consider `Cc1c(-c2cc(Sc3ncccc3F)c3c(C#N)cnn3c2)cnn1[C@H]1CC[C@@H](NC(=O)C(C)(C)O)CC1` [Example 271, N-((1s,4s)-4-(4-(3-cyano-4-((3-fluoropyridin-2-yl)thio)pyrazolo[1,5-a]pyridin-6-yl)-5-methyl-1H-pyrazol-1-yl)cyclohexyl)-2-hydroxy-2-methylpropanamide], for which inhibition was half-maximal at 1 nM (IC50). In turn, `Cc1c(-c2cc(Sc3ccccc3C#N)c3c(C#N)cnn3c2)cnn1[C@H]1CC[C@@H](NS(C)(=O)=O)CC1` [Example 285, N-((1s,4s)-4-(4-(3-cyano-4-((2-cyanophenyl)thio)pyrazolo [1,5-a]pyridin-6-yl)-5-methyl-1H-pyrazol-1-y)cyclohexyl)methane-sulfonamide] displayed an IC50 of 1 nM.

Staying with this assay, now noted: Enz FGFR2 (nM), FGFR2 wild type enzyme assay.
In turn, `[2H]C([2H])([2H])n1cc(-c2cc(Sc3ccccc3C#N)c3c(C#N)cnn3c2)cn1` [Example 641, 4-((2-cyanophenyl)thio)-6-(1-(methyl-d3)-1H-pyrazol-4-yl)pyrazolo[1,5-a]pyridine-3-carbonitrile] came in with an IC50 of 1 nM.

Molecule `N#Cc1cnn2cc(-c3ccc(N4CCNC(=O)C4)nc3)cc(Sc3ncccc3F)c12` [Example 662, 4-((3-fluoropyridin-2-yl)thio)-6-(6-(3-oxopiperazin-1-yl)pyridin-3-yl)pyrazolo[1,5-a]pyridine-3-carbonitrile] came in with an IC50 of 2 nM. Against the preceding molecule, the IC50 is about 2-fold higher. `N#Cc1ccccc1Sc1cc(-c2cn([C@H]3CCNC3)nn2)cn2ncc(C#N)c12` [Example 464, (S)-4-((2-cyanophenyl)thio)-6-(1-(pyrrolidin-3-yl)-1H-1,2,3-triazol-4-yl)pyrazolo[1,5-a]pyridine-3-carbonitrile] yielded an IC50 of 5 nM. With `CN(C)CCn1cc(-c2cc(Sc3ccccc3C#N)c3c(C#N)cnn3c2)cn1` [Example 598, 4-((2-cyanophenyl)thio)-6-(1-(2-(dimethylamino)ethyl)-1H-pyrazol-4-yl)pyrazolo[1,5-a]pryidine-3-carbontrile], the IC50 came to 1 nM.

On to `CC(=O)N1CC[C@@H](n2cc(-c3cc(Sc4ccc(F)cc4C#N)c4c(C#N)cnn4c3)cn2)C[C@H]1C` [Example 412, 6-(1-((2R,4R)-1-acetyl-2-methylpiperidin-4-yl)-1H-pyrazol-4-yl)-4-((2-cyano-4-fluorophenyl)thio)pyrazolo [1,5-a]pyridine-3-carbonitrile], for which it took 1 nM to reach half-maximal inhibition (IC50). Molecule `Cc1cnc(Sc2cc(-c3cnn(C4CCN(C)CC4)c3C)cn3ncc(C#N)c23)c(F)c1` [Example 377, 4-((3-fluoro-5-methylpyridin-2-yl)thio)-6-(5-methyl-1-(1-methylpiperidin-4-yl)-1H-pyrazol-4-yl)pyrazolo[1,5-a]pyridine-3-carbonitrile] displayed an IC50 of 11 nM. Regarding `Cc1c(-c2cc(Sc3ccc(F)cc3C#N)c3c(C#N)cnn3c2)cnn1[C@H]1CCCN(CCO)C1` [Example 336, (S)-4-((2-cyano-4-fluorophenyl)thio)-6-(1-(1-(2-hydroxyethyl)piperidin-3-yl)-5-methyl-1H-pyrazol-4-yl)pyrazolo[1,5-a]pyridine-3-carbonitrile], half-maximal inhibition (IC50) required 1 nM. In turn, `N#Cc1cnn2cc(-c3ccc(N4C[C@@H](O)[C@H](O)C4)nc3)cc(Sc3ncccc3F)c12` [Example 655, 6-(6-((3R,4R)-3,4-dihydroxypyrrolidin-1-yl)pyridin-3-yl)-4-((3-fluoropyridin-2-yl)thio)pyrazolo[1,5-a]pyridine-3-carbonitrile] had an IC50 of 3 nM.

In turn, `N#Cc1cc(F)ccc1Sc1cc(-c2ccc(N3CC[C@@H](O)C3)nc2)cn2ncc(C#N)c12` [Example 627, (R)-4-((2-cyano-4-fluorophenyl)thio)-6-(6-(3-hydroxypyrrolidin-1-yl)pyridin-3-yl)pyrazolo[1,5-a]pyridine-3-carbonitrile] came in with an IC50 of 2 nM. This IC50 lies about 1.5-fold lower than the previous one.
